# Test results: ChEMBL document CHEMBL3763116, “Synthesis and evaluation of colletoic acid core derivatives” (Eur J Med Chem, 2016)
# Legend:
# BJ = test: Cytotoxicity against human BJ cells after 72 hrs by Cell TitreGlo assay; type: cell-based
# [1] = biological target: 11-beta-hydroxysteroid dehydrogenase 1 (Homo sapiens, UniProt P28845); test: Inhibition of 11beta-HSD1 (unknown origin) using cortisol as substrate assessed as NADPH formation by fluorescent plate reader analysis
# [2] = biological target: T1, 11-beta-hydroxysteroid dehydrogenase type 2 (Homo sapiens, UniProt P80365); test: Inhibition of full length human 11beta-HSD2 expressed in HEK293 cells using […] as substrate incubated for 2 hrs by HTRF assay in presence of NAD+; type: cell-based
# T1 sequence (P80365 whole entry): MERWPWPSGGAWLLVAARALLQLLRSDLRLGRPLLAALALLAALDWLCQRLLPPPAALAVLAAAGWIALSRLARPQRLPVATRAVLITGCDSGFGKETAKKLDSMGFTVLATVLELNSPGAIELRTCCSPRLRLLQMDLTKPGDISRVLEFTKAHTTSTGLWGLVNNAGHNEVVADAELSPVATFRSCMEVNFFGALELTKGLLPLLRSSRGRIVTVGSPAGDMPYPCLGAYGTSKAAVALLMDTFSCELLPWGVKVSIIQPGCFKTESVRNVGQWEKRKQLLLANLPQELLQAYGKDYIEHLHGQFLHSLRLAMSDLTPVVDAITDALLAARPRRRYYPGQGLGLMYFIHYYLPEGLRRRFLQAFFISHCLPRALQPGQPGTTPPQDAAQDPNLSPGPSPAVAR
# 11-beta-hydroxysteroid dehydrogenase 1, sequence (P28845 whole entry): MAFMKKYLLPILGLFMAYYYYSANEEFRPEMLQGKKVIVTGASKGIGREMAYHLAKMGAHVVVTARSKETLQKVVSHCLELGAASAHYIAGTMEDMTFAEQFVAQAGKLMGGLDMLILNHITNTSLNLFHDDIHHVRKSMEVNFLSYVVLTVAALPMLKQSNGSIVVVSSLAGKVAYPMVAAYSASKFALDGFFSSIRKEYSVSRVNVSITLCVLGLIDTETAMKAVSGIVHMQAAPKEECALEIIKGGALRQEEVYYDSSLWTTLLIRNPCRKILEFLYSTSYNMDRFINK
SMILES,IC50 [1],IC50 [2],EC50 (BJ)
O=C1C=C[C@@]2(CC1)c1ccccc1C[C@@H]2C(=O)O,> 1000 µM,,> 90 µM
CC(C)[C@@H]1CC[C@H](CO)[C@]12CC[C@@](C)(O)[C@H]1O[C@H]12,> 1000 µM,,> 90 µM
CC(C)C1=CC[C@H](CSc2ccc3ccccc3c2)[C@@]12C=CC(=O)CC2,> 1000 µM,> 1000 µM,> 90 µM
COC1(OC)C=C[C@@]2(CC1)C(C(C)C)=CC[C@@H]2CO,> 1000 µM,,> 90 µM
CC(C)C1=CC[C@H](Cn2cc(CNC(=O)OC(C)(C)C)nn2)[C@@]12C=CC(=O)CC2,> 1000 µM,> 1000 µM,> 90 µM
O=C1C=C[C@@]2(CC1)C(COCc1ccccc1)=CC[C@@H]2CO,> 1000 µM,,> 90 µM
CC(C)C1=CC[C@H](Cn2cc(CN(c3ncccn3)S(=O)(=O)c3ccc(N)cc3)nn2)[C@@]12C=CC(=O)CC2,> 1000 µM,> 1000 µM,> 90 µM
CC(C)C1=CC[C@H](CO)[C@]12CC[C@@](C)(O)[C@@H](O)C2,> 1000 µM,,> 90 µM
CC(C)C1=CC[C@H](CS(=O)(=O)c2nc3ccccc3s2)[C@@]12C=CC(=O)CC2,> 1000 µM,> 1000 µM,> 90 µM
CC(C)C1=CC[C@H](C(=O)O)[C@@]12C=CC(=O)CC2,> 1000 µM,,> 90 µM
CC(C)[C@@H]1CC[C@H](CO)[C@]12CC[C@@](C)(O)[C@@H](O)C2,> 1000 µM,,> 90 µM
C=C1C(=O)C[C@]2(C[C@@H]1OC(C)=O)[C@@H](C(=O)OCC)CC[C@H]2C(C)C,> 1000 µM,,> 90 µM
COc1ccc(S(=O)(=O)NCc2cn(C[C@H]3CC=C(C(C)C)[C@]34C=CC(=O)CC4)nn2)cc1,> 1000 µM,> 1000 µM,> 90 µM
CC(C)[C@@H]1CC[C@H](CO)[C@]12CC[C@](C)(O)[C@H]1O[C@H]12,> 1000 µM,,> 90 µM
CC1=CC[C@@]2(c3ccccc3C[C@@H]2C(=O)O)[C@H](O)[C@@H]1O,> 1000 µM,,> 90 µM
CC(C)C1=CC[C@H](CO)[C@@]12C=CC(=O)CC2,> 1000 µM,,> 90 µM
CC(C)C1=CC(=O)[C@H](CO[Si](C)(C)C(C)(C)C)[C@@]12C=C[C@](C)(O)CC2,> 1000 µM,,> 90 µM
CCCCCCSc1nnc(SC[C@H]2CC=C(C(C)C)[C@]23C=CC(=O)CC3)s1,> 1000 µM,> 1000 µM,> 90 µM
CC1=CC[C@@]2(CC1)C(C(C)C)=CC[C@@H]2CO,> 1000 µM,,> 90 µM

SMILES,IC50 [1],IC50 [2],EC50 (BJ)
CC1=CC(=O)[C@@]2(CC1)C(C(C)C)=CC[C@@H]2CO[Si](C)(C)C(C)(C)C,> 1000 µM,,> 90 µM
CC(C)[C@@H]1CC[C@@H]2CO[C@@H]3C[C@](C)(O)CC[C@]231,> 1000 µM,,> 90 µM
CC(C)C1=CC[C@H](C(N)=O)[C@@]12C=CC(=O)CC2,> 1000 µM,,> 90 µM
CCOC(=O)[C@H]1CC[C@@H](C(C)C)[C@]12CCC(=O)[C@@H](OC(C)=O)C2,> 1000 µM,,> 90 µM
CC(C)C1=CC[C@H](C(=O)NCc2cc(F)cc(F)c2)[C@@]12C=CC(=O)CC2,> 1000 µM,> 1000 µM,> 90 µM
O=C1CC[C@@]2(c3ccccc3C[C@@H]2CO)[C@@H]2O[C@H]12,> 1000 µM,,> 90 µM
CC(C)C1=CC[C@H](CO)[C@]12CCC(=O)[C@H]1O[C@H]12,> 1000 µM,,> 90 µM
O=C1C=C[C@@]2(CC1)c1ccccc1C[C@@H]2CO,> 1000 µM,,> 90 µM
CCOC(=O)[C@H]1CC=C(C(C)C)[C@]12C=CC(=O)[C@@H](OC(C)=O)C2,> 1000 µM,,> 90 µM
CC(C)C1=CC[C@H](CO)[C@]12CC[C@@](C)(O)C[C@H]2O,> 1000 µM,,> 90 µM
CC(C)C1=CC[C@H](C(=O)NCCc2cccs2)[C@@]12C=CC(=O)CC2,> 1000 µM,> 1000 µM,> 90 µM
CC(C)C1=CC[C@H](CSc2nc3ccccc3o2)[C@@]12C=CC(=O)CC2,> 1000 µM,> 1000 µM,> 90 µM
CC(C)C1=CC[C@H](CO)[C@@]12C=C[C@](C)(O)CC2,> 1000 µM,,> 90 µM
CC(C)C1=CC[C@H](CN2C(=O)c3ccccc3C2=O)[C@@]12C=CC(=O)CC2,> 1000 µM,> 1000 µM,> 90 µM
C[C@H]1CC[C@@]2(c3ccccc3C[C@@H]2C(=O)O)[C@H](O)[C@@H]1O,> 1000 µM,,> 90 µM
C=C1C=C[C@]2(CC1)[C@@H](C(=O)OCC)CC[C@H]2C(C)C,> 1000 µM,,> 90 µM
CC(C)C1=CC[C@H](CO[Si](C)(C)C(C)(C)C)[C@]12CC[C@@]1(O[Si](C)(C)C(C)(C)C)O[C@H]1C2,> 1000 µM,,> 90 µM
CC(C)C1=CC[C@H](CO)[C@]12CC[C@](C)(O)[C@@H](O)C2,> 1000 µM,,> 90 µM
"CCOC(=O)[C@H]1CC[C@@H](C(C)C)[C@]12C=CC(O)[C@@H](OC(C)=O)C2 (single isomer, unassigned)",> 1000 µM,,> 90 µM

# Continued, in another order:
IC50 [1],IC50 [2],SMILES,EC50 (BJ)
18 µM,> 1000 µM,CC(C)=CCC/C(C)=C/CNC(=O)[C@H]1CC=C(C(C)C)[C@]12C=CC(=O)CC2,> 90 µM
> 1000 µM,,C=C1CC[C@H](C(=O)OCC)[C@@]12C=CC(=O)CC2,> 90 µM
> 1000 µM,,CC1=CC[C@H](CO)[C@@]12C=CC(=O)CC2,> 90 µM
> 1000 µM,,CCOC(=O)[C@H]1CC[C@@H](C(C)C)[C@]12C=CC(=O)CC2,> 90 µM
> 1000 µM,,CC(C)C1=CC[C@H]2C(=O)O[C@@H]3CC(=O)CC[C@@]132,> 90 µM
> 1000 µM,,CC(C)[C@@H]1CC[C@@H]2CO[C@@H]3[C@H](O)[C@](C)(O)CC[C@]231,> 90 µM
> 1000 µM,,CC(C)[C@@H]1CC[C@H](CO)[C@]12CC[C@@](C)(O)C[C@H]2O,> 90 µM
74 µM,> 1000 µM,CCn1c2ccccc2c2nnc(S(=O)(=O)C[C@H]3CC=C(C(C)C)[C@]34C=CC(=O)CC4)nc21,> 90 µM
> 1000 µM,> 1000 µM,CC(C)C1=CC[C@H](CS(=O)(=O)c2nc3ccccc3o2)[C@@]12C=CC(=O)CC2,> 90 µM
> 1000 µM,,C=C1CC[C@]2(C[C@@H]1OC(C)=O)[C@@H](C(=O)OCC)CC[C@H]2C(C)C,> 90 µM
341 µM,> 1000 µM,CC(C)C1=CC[C@H](CN2C(=O)c3ccccc3S2(=O)=O)[C@@]12C=CC(=O)CC2,> 90 µM
245 µM,> 1000 µM,CC(C)C1=CC[C@H](CS(=O)(=O)c2nnnn2-c2ccccc2)[C@@]12C=CC(=O)CC2,> 90 µM
> 1000 µM,,CC(C)(C)[Si](C)(C)OCCC1=CC[C@H](CO)[C@@]12C=CC(=O)CC2,> 90 µM
> 1000 µM,,O=C1C=C[C@@]2(CC1)C(c1ccccc1)=CC[C@@H]2CO,> 90 µM
> 1000 µM,,CCOC[C@H]1CC=C(C(C)C)[C@]12C=CC(=O)CC2,> 90 µM
> 1000 µM,,C[C@@]1(O)CC[C@]23c4ccccc4C[C@@H]2CO[C@@H]3[C@@H]1O,> 90 µM
> 1000 µM,,CC(C)C1=CC[C@H](CO)[C@]12CC[C@](C)(O)[C@H]1O[C@H]12,> 90 µM
> 1000 µM,> 1000 µM,CC(C)C1=CC[C@H](CSc2nc3ccccc3s2)[C@@]12C=CC(=O)CC2,> 90 µM
> 1000 µM,> 1000 µM,CC(C)C1=CC[C@H](CSc2nnnn2-c2ccccc2)[C@@]12C=CC(=O)CC2,> 90 µM
> 1000 µM,,CC(C)C1=CC[C@H](CO)C12CCC(=O)CC2,> 90 µM
8 µM,> 1000 µM,CC(C)C1=CC[C@H](CS(=O)(=O)c2ccc3ccccc3c2)[C@@]12C=CC(=O)CC2,> 90 µM
122 µM,> 1000 µM,CC(C)C1=CC[C@H](C(=O)Nc2ncc(-c3ccc(Cl)cc3)s2)[C@@]12C=CC(=O)CC2,> 90 µM
33 µM,> 1000 µM,CCn1c2ccccc2c2nnc(SC[C@H]3CC=C(C(C)C)[C@]34C=CC(=O)CC4)nc21,> 90 µM
85 µM,> 1000 µM,CC(C)C1=CC[C@H](C(=O)NC(C)C23CC4CC(CC(C4)C2)C3)[C@@]12C=CC(=O)CC2 (stereo partly specified),> 90 µM
94 µM,> 1000 µM,CC(C)C1=CC[C@H](C(=O)NCC2CCC3CC2C3(C)C)[C@@]12C=CC(=O)CC2 (stereo partly specified),> 90 µM
121 µM,> 1000 µM,CCCCCCSc1nnc(S(=O)(=O)C[C@H]2CC=C(C(C)C)[C@]23C=CC(=O)CC3)s1,> 90 µM
